Assay results as given in patent US9944589B2, “Cycloproplyamine derivatives useful as inhibitors of histone demethylases KDM1A” (Istituto Europeo de Oncologia S.r.L., priority 2012, dated 2018).
Counter-ions that a name gives are not always drawn.

Tested on: Acute promyelocytic leukemia NB4 cells
Test: Cell growth (CellTiter-Fluor cell viability assay)
Type: cell-based
Conditions: Homo sapiens, NB-4, 48 h, range classes, read-out: IC50 [μM], cell growth inhibitory assay
Text: CellTiter-Flor® (Promega) is as a nonlytic, single-reagent-addition fluorescence assay that measures the relative number of living cells in a culture population after experimental manipulation. The CellTiter-Fluor™ Cell Viability Assay measures the conserved and constitutive protease activity within live cells and therefore acts as a marker for cell viability.
Acute promyelocytic leukemia NB4 cells, (obtained from the Deutsche Sammlung von Mikroorganismen and Zellkulturen) in exponential growth, were incubated for 48 h with different concentrations of the inhibitors. After 48 h a volume of CellTiter-Fluor® Reagent equal to one fifth of volume of cell culture medium was added. The content was mixed and incubates for at least 90 min at 37° C. degree to obtain a stable signal. The fluorescence was recorded using an excitation wavelength of 360 nm and an emission at 535 nm. The IC50 was calculated using GraphPad Software.

| SMILES | IC50 [µM] |
| --- | --- |
| N[C@]1(Cc2ccccc2)C[C@H]1c1ccccc1 (relative stereo) [Example A-8, trans-1-benzyl-2-phenyl-cyclopropanamine hydrochloride] | 50 to 100 |
| N[C@]1(CCc2ccccc2)C[C@H]1c1ccccc1 (relative stereo) [Example A-11, trans-1-phenethyl-2-phenyl-cyclopropanamine hydrochloride] | 10 to 50 |
| N[C@]1(Cc2ccc3ccccc3c2)C[C@H]1c1ccccc1 (relative stereo) [Example A-15, trans-1-(2-naphthylmethyl)-2-phenyl-cyclopropanamine hydrochloride] | ≤ 10 |
| CC[C@@]1(N)C[C@H]1c1ccc(NC(=O)c2ccc3ccccc3c2)cc1 (relative stereo) [Example A-30, trans-N-[4-[2-amino-2-ethyl-cyclopropyl]phenyl]naphthalene-2-carboxamide hydrochloride] | 10 to 50 |
| CC[C@]1(N)C[C@@H]1c1ccccc1NC(=O)c1cccc(NC(=O)OCc2ccccc2)c1 (relative stereo) [Example A-32, benzyl N-[3-[[2-[(trans)-2-amino-2-ethyl-cyclopropyl]phenyl]carbamoyl]phenyl]carbamate hydrochloride] | 10 to 50 |
| N[C@@]1(CO)C[C@H]1c1ccccc1 (relative stereo) [Example B-2, [1-Amino-(cis)-2-phenyl-cyclopropyl]methanol] | 50 to 100 |
| CC[C@@]1(NCc2c(OC)ccc3ccccc23)C[C@H]1c1ccccc1 [Example C-2, (1R,2S)-1-ethyl-N-[(2-methoxy-1-naphthyl)methyl]-2-phenyl-cyclopropanamine] | 50 to 100 |

The remaining lines, values ahead:

| IC50 [µM] | SMILES |
| --- | --- |
| 10 to 50 | CC[C@@]1(N)C[C@H]1c1ccc2ncccc2c1 (relative stereo) [Example A-14, trans-1-ethyl-2-(6-quinolyl)cyclopropanamine dihydrochloride] |
| ≤ 10 | CC[C@@]1(N)C[C@H]1c1ccc(NC(=O)c2ccc(NC(=O)OCc3ccccc3)cc2)cc1 (relative stereo) [Example A-38, benzyl N-[4-[[4-[(trans)-2-amino-2-ethyl-cyclopropyl]phenyl]carbamoyl]phenyl]carbamate hydrochloride] |
| ≤ 10 | N[C@]1(Cc2ccc3ccccc3c2)C[C@H]1c1ccc(NC(=O)c2cccc(NC(=O)OCc3ccccc3)c2)cc1 (relative stereo) [Example A-45, benzyl N-[3-[[4-[(trans)-2-amino-2-(2-naphthylmethyl)cyclopropyl]phenyl]carbamoyl]phenyl] carbamate hydrochloride] |
| ≤ 10 | Nc1ccc([C@@H]2C[C@]2(N)Cc2ccc3ccccc3c2)cc1 (relative stereo) [Example A-119, 4-[trans-2-amino-2-(2-naphthylmethyl)cyclopropyl]aniline 2,2,2-trifluoroacetic acid] |
